According to ChEMBL document CHEMBL1201862, “PubChem BioAssay data set” (2004):
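Five concentrations, 48 hours, 96-well plates. Here, GI50 denotes the concentration required for 50% inhibition of growth.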 Active and inactive are the calls of the source. Cut-off read from the data, not from the text of the source: active = GI50 up to about 1.1 µM and inactive = higher.

Key:
Assay in all cases: NCI-60 cell line screen, 48 h
[1] = tested on: UO-31
[2] = tested on: DLD-1
[3] = tested on: KM-20L2
[4] = tested on: MDA-MB-231
[5] = tested on: RPMI-8226
[6] = tested on: UACC-62
[7] = tested on: OVCAR-4
[8] = tested on: HOP-62
[9] = tested on: Malme-3M
[10] = tested on: SF-539
[11] = tested on: NCI/ADR-RES
[12] = tested on: A498
[13] = tested on: SF-268
[14] = tested on: MDA-MB-435
[15] = tested on: HCT-116
[16] = tested on: SNB-19
[17] = tested on: SF-295
[18] = tested on: SK-MEL-2
[19] = tested on: SN12C
[20] = tested on: 786-0
[21] = tested on: T47D
[22] = tested on: HOP-18
[23] = tested on: ACHN
[24] = tested on: XF498
[25] = tested on: DU-145
[26] = tested on: CAKI-1
[27] = tested on: BT-549
[28] = tested on: HOP-92
[29] = tested on: LOX IMVI
[30] = tested on: MOLT-4
[31] = tested on: M19-MEL
[32] = tested on: TK-10
[33] = tested on: HL-60
[34] = tested on: SW-620
[35] = tested on: OVCAR-5
[36] = tested on: RXF 393
[37] = tested on: M14
[38] = tested on: PC-3
[39] = tested on: KM12
[40] = tested on: NCI-H522
[41] = tested on: OVCAR-3
[42] = tested on: OVCAR-8
[43] = tested on: IGROV-1
[44] = tested on: HCC 2998
[45] = tested on: NCI-H23
[46] = tested on: HCT-15
[47] = tested on: MCF7
[48] = tested on: NCI-H226
[49] = tested on: A549
[50] = tested on: U-251
[51] = tested on: SK-MEL-28
[52] = tested on: K562
[53] = tested on: COLO 205
[54] = tested on: SK-MEL-5
[55] = tested on: NCI-H460
[56] = tested on: SNB-75
[57] = tested on: Hs-578T
[58] = tested on: CCRF-CEM
[59] = tested on: SNB-78
[60] = tested on: EKVX
[61] = tested on: UACC-257
[62] = tested on: DMS-273
[63] = tested on: SK-OV-3
[64] = tested on: HT-29
[65] = tested on: LXFL 529
[66] = tested on: SR
[67] = tested on: DMS-114

Compound: CC1=C(C(=O)Nc2ccc(Cl)c(C(=O)OC(C)C)c2)SCCO1
- GI50 [1]: 36.9 µM (inactive)
- GI50 [2]: 74 µM (inactive)
- GI50 [3]: 33.9 µM (inactive)
- GI50 [4]: > 100 µM (inactive)
- GI50 [5]: 23.3 µM (inactive)
- GI50 [6]: 67.6 µM (inactive)
- GI50 [7]: 56.8 µM (inactive)
- GI50 [8]: > 91.4 µM (inactive)
- GI50 [9]: 47.3 µM (inactive)
- GI50 [10]: > 89.3 µM (inactive)
- GI50 [11]: 66.2 µM (inactive)
- GI50 [12]: 53.5 µM (inactive)
- GI50 [13]: 30.6 µM (inactive)
- GI50 [14]: > 100 µM (inactive)
- GI50 [15]: > 77.4 µM (inactive)
- GI50 [16]: 70.5 µM (inactive)
- GI50 [17]: 54.7 µM (inactive)
- GI50 [18]: 68.4 µM (inactive)
- GI50 [19]: > 100 µM (inactive)
- GI50 [20]: > 100 µM (inactive)
- GI50 [21]: 24.2 µM (inactive)
- GI50 [22]: 81.3 µM (inactive)
- GI50 [23]: > 100 µM (inactive)
- GI50 [24]: 62.4 µM (inactive)
- GI50 [25]: > 100 µM (inactive)
- GI50 [26]: > 100 µM (inactive)
- GI50 [27]: > 100 µM (inactive)
- GI50 [28]: 66.2 µM (inactive)
- GI50 [29]: 51.6 µM (inactive)
- GI50 [30]: 40.4 µM (inactive)
- GI50 [31]: 26.6 µM (inactive)
- GI50 [32]: > 100 µM (inactive)
- GI50 [33]: 13.8 µM (inactive)
- GI50 [34]: 74.8 µM (inactive)
- GI50 [35]: 47.9 µM (inactive)
- GI50 [36]: 48.1 µM (inactive)
- GI50 [37]: > 100 µM (inactive)
- GI50 [38]: > 100 µM (inactive)
- GI50 [39]: 80.9 µM (inactive)
- GI50 [40]: 36.4 µM (inactive)
- GI50 [41]: 86.1 µM (inactive)
- GI50 [42]: 81.3 µM (inactive)
- GI50 [43]: 72.4 µM (inactive)
- GI50 [44]: 54.8 µM (inactive)
- GI50 [45]: 69.2 µM (inactive)
- GI50 [46]: 69 µM
- GI50 [47]: 55.3 µM (inactive)
- GI50 [48]: 75.3 µM (inactive)
- GI50 [49]: 50.1 µM (inactive)
- GI50 [50]: 55.7 µM (inactive)
- GI50 [51]: 74.6 µM (inactive)
- GI50 [52]: 45.6 µM (inactive)
- GI50 [53]: 51.9 µM (inactive)
- GI50 [54]: 50.1 µM (inactive)
- GI50 [55]: 66.2 µM (inactive)
- GI50 [56]: 75.9 µM (inactive)
- GI50 [57]: 17.7 µM (inactive)
- GI50 [58]: 48.6 µM (inactive)
- GI50 [59]: 99.5 µM (inactive)
- GI50 [60]: 71.4 µM (inactive)
- GI50 [61]: 62.1 µM (inactive)
- GI50 [62]: 55.6 µM (inactive)
- GI50 [63]: > 81.1 µM (inactive)
- GI50 [64]: 25.7 µM (inactive)

Compound: S=C(Nc1ccccc1)N1N=C2c3ccccc3CC[C@H]2[C@@H]1c1ccccc1
- GI50 [65]: 5.52 µM (inactive)
- GI50 [1]: 13.2 µM (inactive)
- GI50 [2]: 9.42 µM (inactive)
- GI50 [3]: 3.21 µM (inactive)
- GI50 [5]: 4.34 µM (inactive)
- GI50 [6]: 2.75 µM (inactive)
- GI50 [7]: 47.1 µM (inactive)
- GI50 [8]: 4.22 µM (inactive)
- GI50 [9]: > 100 µM (inactive)
- GI50 [10]: 5.87 µM (inactive)
- GI50 [12]: 11.7 µM (inactive)
- GI50 [13]: 12.9 µM (inactive)
- GI50 [15]: > 100 µM (inactive)
- GI50 [16]: 9.18 µM (inactive)
- GI50 [18]: 2.35 µM (inactive)
- GI50 [19]: 37.2 µM (inactive)
- GI50 [20]: 4.31 µM (inactive)
- GI50 [22]: 6.21 µM (inactive)
- GI50 [23]: 6.78 µM (inactive)
- GI50 [24]: > 100 µM (inactive)
- GI50 [29]: 7.35 µM (inactive)
- GI50 [30]: 4 µM (inactive)
- GI50 [31]: 1.83 µM (inactive)
- GI50 [66]: 0.248 µM (active)
- GI50 [32]: > 100 µM (inactive)
- GI50 [33]: 0.855 µM (active)
- GI50 [34]: 2.4 µM (inactive)
- GI50 [35]: > 100 µM (inactive)
- GI50 [36]: 2.12 µM (inactive)
- GI50 [37]: 4.89 µM (inactive)
- GI50 [39]: 2.79 µM (inactive)
- GI50 [40]: 0.581 µM (active)
- GI50 [41]: 1.88 µM (inactive)
- GI50 [42]: 10.3 µM (inactive)
- GI50 [43]: 4.54 µM (inactive)
- GI50 [44]: > 100 µM (inactive)
- GI50 [45]: 5.27 µM (inactive)
- GI50 [46]: 2.02 µM
- GI50 [48]: 4.23 µM (inactive)
- GI50 [49]: 4.66 µM (inactive)
- GI50 [50]: 7.59 µM (inactive)
- GI50 [51]: 8.09 µM (inactive)
- GI50 [52]: 0.607 µM (active)
- GI50 [55]: 3.64 µM (inactive)
- GI50 [58]: 2.91 µM (inactive)
- GI50 [67]: 2.29 µM (inactive)
- GI50 [59]: 0.708 µM (active)
- GI50 [60]: > 100 µM (inactive)
- GI50 [61]: 3.58 µM (inactive)
- GI50 [63]: 2.22 µM (inactive)
- GI50 [64]: 2.81 µM (inactive)
